Results on 70 compounds are retold here after ChEMBL document CHEMBL4483862, “Open-source discovery of chemical leads for next-generation chemoprotective antimalarials” (2018).

The assay deals with Plasmodium berghei. As to the kind of experiment: Luciferase/luciferin-expressing antifolate-resistant parasites were used to infect a culture of HepG2 cells that were pre-incubated with compounds. Infected hepatocytes emit light due to the luciferase reaction. Assay results are presented as the percent inhibition of light emission compared to control. […]. The assay is classed as functional. As to conditions: sporozoite; for IC50: read-out: LUCIFERASE INFECTION ASSAY - IC50; for IC90: read-out: LUCIFERASE INFECTION ASSAY - IC90.

For the compound `Cc1c(Cl)cccc1N=C(NS(=O)(=O)c1cccs1)c1ccccc1`, the IC50 was over 10 µM and the concentration for an effect of 90% (IC90) is over 10 µM.
With `Cc1ccc2c(c1)s/c(=N/C(=O)c1cccs1)n2C`, the concentration for half-maximal inhibition (IC50) worked out at 2.27 µM and the IC90 was over 10 µM.
Turning to `COC(=O)c1ccc(COc2ccc(/C=N/Nc3ccnc4cc(Cl)ccc34)cc2OC)cc1`, the IC50 was over 10 µM and the IC90 is over 10 µM.
Take `O=C(OCN1C(=O)c2ccccc2C1=O)c1ccc(OCC2CCCO2)cc1` (stereo not given): the IC50 is over 10 µM and the IC90 was over 10 µM.
With `Cc1nnc(NC(=O)CN2CCC(c3nc4ccccc4o3)CC2)s1`, the IC50 was over 10 µM and the 90% effect concentration (IC90) was over 10 µM.
As for `CN(Cc1ccsc1)c1nc(C(F)(F)F)nc2ccccc12`, the IC50 was over 10 µM and the 90% effect concentration (IC90) is over 10 µM.
`CCN1C(c2ccc(C)cc2)=CS/C1=C(/C#N)c1nnc2n1CCCCC2`: the IC50 is over 10 µM and the IC90 is over 10 µM.
For `CN(Cc1nccn1C(F)F)c1ncnc2sccc12`, the IC50 is over 10 µM and the IC90 was over 10 µM.
For the compound `O=C(CC1(C(F)(F)F)OCCO1)Nc1ccc(C(OC(=O)c2ccc(F)cc2)(C(F)(F)F)C(F)(F)F)cc1`, the IC50 was over 10 µM and the IC90 was over 10 µM.
Take `CC(OC(=O)c1cccnc1N)C(=O)Nc1ccc2ccccc2c1` (stereo not given): the IC50 was over 10 µM and the IC90 is over 10 µM.
As to `Cc1cc(N2CCN(c3nc(C)cc(C)c3C#N)CC2)nc(C(C)C)n1`, the IC50 was over 10 µM and the 90% effect concentration (IC90) is over 10 µM.
As for `CCN(CC)S(=O)(=O)c1ccc(C(=O)Nc2ccc(C34CC5CC(CC(O)(C5)C3)C4)cc2)cc1`, the 50% inhibitory concentration (IC50) was over 10 µM and the IC90 is over 10 µM.
On to `Cc1cccc(NC(=O)CNC(=O)c2ccc3c(c2)C(=O)N(C)C3=O)c1C`, for which the IC50 was over 10 µM and the IC90 is over 10 µM.
On to `Cc1nc2ccccc2c(C)c1CC(=O)NCc1coc(-c2cccs2)n1`, for which the IC50 was over 10 µM and the IC90 is over 10 µM.
For the compound `CCc1ccc(-c2nc(Cn3cnc4ccccc4c3=O)cs2)cc1`, the IC50 is over 10 µM and the IC90 was over 10 µM.
For the compound `O=C(c1ccc(=O)[nH]c1)N1CCN(Cc2nc(=O)c3ccccc3[nH]2)CC1`, the IC50 is over 10 µM and the concentration for an effect of 90% (IC90) is over 10 µM.
Regarding `CC(c1ccc(S(C)(=O)=O)cc1)N(C)S(=O)(=O)c1ccccc1F` (stereo not given), the IC50 is over 10 µM and the IC90 is over 10 µM.
Turning to `Cc1cc(C(=O)CSc2nnc(C3CC3)[nH]2)c(C)n1CCC1=CCCCC1`, the IC50 was over 10 µM and the IC90 was over 10 µM.
Consider `CC1CCc2sc(C(=O)Nc3cccc4c3C(=O)NC4)cc2C1` (stereo not given), for which the 50% inhibitory concentration (IC50) is 3.61 µM and the IC90 is 4.22 µM.
In the same order, the values of `NC(=O)C1CCN(c2nc(-c3cccs3)nc3sc4c(c23)CCCC4)CC1` are over 10 µM and over 10 µM.
On the same counts, the results for `Cc1cccc(C(=O)NC(C(=O)Nc2ccn(C)n2)C(C)C)c1` (stereo not given) are over 10 µM and over 10 µM.
On the same counts, the results for `COc1ccccc1CNC(=O)CN1CCN(c2cc(C)nc(C(C)C)n2)CC1` are over 10 µM and over 10 µM.
Turning to `CNc1snc(C)c1C(=O)NC(C)c1ccc(OC(F)F)cc1` (stereo not given), the IC50 is 8.84 µM and the IC90 was 9.96 µM.
In the same order, the values of `COC(=O)c1ccc(C)c(NC(=O)CCc2ccc3c(c2)OCCO3)c1` are over 10 µM and over 10 µM.
In the same order, the values of `COC(=O)C1=C(C)NC(C)=C(C(=O)OC)C1c1cc(NC(=O)NC2CCCCC2)ccc1OC(F)F` are over 10 µM and over 10 µM.
For `N#C/C(=C\c1sc(N2CCCCC2)nc1-c1ccccc1)c1nnc2n1CCCCC2`, the concentration for half-maximal inhibition (IC50) was over 10 µM and the IC90 was over 10 µM.
On to `CCN(CC)S(=O)(=O)c1cccc(NC(=O)C23CC4CC(C2)CC(c2ccc(C)cc2)(C4)C3)c1`, for which the IC50 is over 10 µM and the IC90 is over 10 µM.
On to `Oc1ccc(CNC(c2ccc3c(c2)CCC3)c2cccs2)cc1` (stereo not given), for which the IC50 was over 10 µM and the IC90 is over 10 µM.
Regarding `CCOC(/C=C1\Sc2c(ccc3c2CCCC3)N1CC)=C1/SC(=S)N(CC)C1=O`, the IC50 is over 10 µM and the IC90 is over 10 µM.
For `N#CC(c1nc(-c2ccc(Cl)cc2)cs1)N1CCc2ccccc2C1` (stereo not given), the IC50 is over 10 µM and the IC90 is over 10 µM.
Consider `CCOc1cccc(C(=O)Nc2c(C)cc(Br)cc2C)c1`, for which the half-inhibitory concentration (IC50) was over 9.48 µM and the IC90 was over 9.48 µM.
In the case of `CC(c1cc2ccccc2o1)N(C)C(=O)Cc1ccccc1F` (stereo not given), the IC50 is over 10 µM and the IC90 is over 10 µM.
As for `O=C(Cc1ccccc1)NCC(=O)N1CCOC(c2ccccc2)C1` (stereo not given), the half-maximal inhibitory concentration (IC50) was over 10 µM and the concentration for an effect of 90% (IC90) was over 10 µM.
Consider `Cc1nc(SCC(=O)N(C)Cc2cnn(Cc3ccccc3)c2)c2c(C)c(C)sc2n1`, for which the IC50 was over 10 µM and the IC90 was over 10 µM.
Regarding `CC(C)CNC(=O)c1cc(Br)ccc1O`, the half-maximal inhibitory concentration (IC50) is over 10 µM and the IC90 is over 10 µM.
Turning to `Cc1cc2ncn(CC(O)CN3CCOCC3)c2cc1C` (stereo not given), the IC50 is over 10 µM and the IC90 is over 10 µM.
In the case of `Cc1nc(Sc2ncnc3scc(-c4ccc(F)cc4)c23)oc1C`, the IC50 is over 10 µM and the 90% effect concentration (IC90) is over 10 µM.
On to `CC(C)c1ccc(C(=O)N2CC(C(=O)N3CCOCC3)Oc3ccccc32)cc1` (stereo not given), for which the IC50 is over 10 µM and the concentration for an effect of 90% (IC90) was over 10 µM.
Take `O=C(CCc1ncc(-c2ccccc2)o1)Nc1ncccc1O`: the IC50 was over 10 µM and the IC90 is over 10 µM.
Consider `CCN(CC(=O)Nc1cccc(OC)c1)C(=O)C1Cc2ccccc2O1` (stereo not given), for which the IC50 is over 10 µM and the IC90 is over 10 µM.
Take `O=C(Nc1ccccc1SCc1ccsc1)C1CCCCC1`: the IC50 was over 10 µM and the IC90 is over 10 µM.
With `O=c1[nH]c2ccccc2c(=O)n1CC1(N2CCCCC2)CCCCC1`, the IC50 is over 10 µM and the IC90 was over 10 µM.
For `O=C(Nc1cccc(SC(F)(F)C(F)(F)C(F)(F)F)c1)C1(S(=O)(=O)c2ccccc2)CC1`, the IC50 was over 10 µM and the IC90 is over 10 µM.
In the case of `CC(NC(=O)NCc1ccccc1)c1ccc2ccccc2c1` (stereo not given), the IC50 is over 10 µM and the IC90 was over 10 µM.
`O=C1CN(C(=O)Cc2ccc3c(c2)CCO3)c2ccccc2N1`: the IC50 was over 10 µM and the IC90 is over 10 µM.
Consider `Clc1ccc(OC2OCCOC2Oc2ccc(Cl)cc2Cc2ccccc2)c(Cc2ccccc2)c1` (stereo not given), for which the half-inhibitory concentration (IC50) was over 10 µM and the IC90 was over 10 µM.
For `O=C1NC(c2ccccc2)=C(C(=O)C(F)(F)F)C(c2ccc(OC(F)F)cc2)N1` (stereo not given), the IC50 was over 10 µM and the IC90 is over 10 µM.
As to `CCOc1ccc2nc(SCC(=O)N3Cc4ccccc4CC3C(=O)O)sc2c1` (stereo not given), the IC50 was over 10 µM and the IC90 is over 10 µM.
In the case of `Cc1ccc(S(=O)(=O)Nc2ccc(C(=O)Nc3ncccc3O)cc2)cc1C`, the IC50 came to 7.38 µM and the IC90 was over 10 µM.
In the case of `NC(=O)c1cc(Cl)ccc1OCc1ccc(OC(F)(F)F)cc1`, the IC50 is over 10 µM and the IC90 is over 10 µM.
On to `N#C/C(=C\c1ccc(OC(=O)c2cccnc2)cc1)c1nnc2n1CCCCC2`, for which the IC50 is over 10 µM and the 90% effect concentration (IC90) was over 10 µM.
Consider `CCC(C)(C)NC(=O)CSC(c1ccc(F)cc1)c1ccc(F)cc1`, for which the 50% inhibitory concentration (IC50) was over 10 µM and the 90% effect concentration (IC90) was over 10 µM.
Regarding `Cc1c(Sc2ccc(F)cc2)c2ccccn2c1/C(=N\S(=O)(=O)c1cccs1)c1ccccc1`, the IC50 was over 10 µM and the IC90 was over 10 µM.
For `CCOC(=O)c1c(-c2ccc(Cl)cc2)csc1Nc1nc(S(=O)(=O)c2ccc(Cl)cc2)c(Cl)s1`, the IC50 came to 5.47 µM and the IC90 is over 10 µM.
For `COc1ccc(NS(=O)(=O)c2cc(NC(=O)c3cc(S(=O)(=O)Nc4ccc(Cl)cc4)ccc3Cl)ccc2N2CCOCC2)cc1`, the IC50 is over 10 µM and the IC90 is over 10 µM.
In the case of `Cc1ccc(-c2nc(C(=O)N3CCCc4ccccc43)cs2)cc1`, the IC50 amounted to 2.91 µM and the IC90 is over 10 µM.
In the same order, the values of `CNC(=O)c1ccc(CN(Cc2ccco2)Cc2cccc3cccnc23)cc1` are over 10 µM and over 10 µM.
In the same order, the values of `COc1ccc(C(=O)C2CCN(c3nn4cc(C(C)(C)C)nc4s3)CC2)cc1` are 3.34 µM and 4.16 µM.
On the same counts, the results for `Cc1ccc(Oc2ccc(OCC(=O)NC3CCN(C(C)C)CC3)cc2)cc1` are over 10 µM and over 10 µM.
In the case of `O=C(c1nn(-c2ccccc2)c2c1CCC2)N1CCn2c1nc1ccccc12`, the IC50 was over 10 µM and the IC90 was over 10 µM.
Take `CCCn1nc(C(=O)N2CC(C)CC(C)C2)ccc1=O` (stereo not given): the IC50 was over 10 µM and the IC90 was over 10 µM.
For `CCn1c(SCC(=O)NC(=O)NCc2cccs2)nnc1C1CC1`, the IC50 was over 10 µM and the IC90 is over 10 µM.
`Cc1nccn1Cc1cccc(CNS(=O)(=O)c2ccc3ccccc3c2)c1`: the IC50 is over 10 µM and the IC90 is over 10 µM.
As to `Cc1cc(C)c2c(C)c(C(=O)Nc3nc4ccccc4s3)sc2n1`, the IC50 was found to be 0.841 µM and the IC90 came to 1.17 µM.
In the same order, the values of `O=S(=O)(c1ccccc1)N1CN(c2ccc(N3CCOCC3)cc2)c2nc3ccccc3nc21` are over 10 µM and over 10 µM.
`CCOc1ncccc1C(=O)Nc1ccc(NC(=O)C2CC2)cc1C(F)(F)F`: the half-maximal inhibitory concentration (IC50) was over 10 µM and the IC90 is over 10 µM.
In the case of `Cc1nnc(SCCCc2nc(-c3ccncc3)no2)n1Cc1ccccc1`, the IC50 was over 10 µM and the IC90 was over 10 µM.
In the case of `O=C1CC2(CCCC2)C(=O)N1CC(O)c1ccccc1` (stereo not given), the IC50 is over 10 µM and the IC90 was over 10 µM.
`N#Cc1ccc(OCC(=O)c2ccc(OC(F)F)cc2OC(F)F)cc1`: the IC50 was over 10 µM and the IC90 is over 10 µM.
On to `CCc1cccc2c(C3=CCN(c4ncccn4)CC3)c[nH]c12`, for which the half-inhibitory concentration (IC50) was over 10 µM and the IC90 was over 10 µM.

The IC50 is the point on the concentration scale where inhibition reaches its midpoint. A word on the IC90: it is the concentration needed for an effect of 90%.
